Experimental data published in patent US20100267743A1, “3-(PHENOXYPYRROLIDIN-3-YL-METHYL)HETEROARYL, 3-(PHENYLPYRROLIDIN-3-YLMETHOXY)HETEROARYL, AND 3-(HETEROARYLPYRROLIDIN-3-YLMETHOXY)HETEROARYL COMPOUNDS” (priority 2009, published 2010).

How the values were obtained:
[1] = biological target: T1, SERT (Homo sapiens, UniProt P31645); settings: cited from earlier work
Target sequence in this assay (P31645 whole entry, species assumed): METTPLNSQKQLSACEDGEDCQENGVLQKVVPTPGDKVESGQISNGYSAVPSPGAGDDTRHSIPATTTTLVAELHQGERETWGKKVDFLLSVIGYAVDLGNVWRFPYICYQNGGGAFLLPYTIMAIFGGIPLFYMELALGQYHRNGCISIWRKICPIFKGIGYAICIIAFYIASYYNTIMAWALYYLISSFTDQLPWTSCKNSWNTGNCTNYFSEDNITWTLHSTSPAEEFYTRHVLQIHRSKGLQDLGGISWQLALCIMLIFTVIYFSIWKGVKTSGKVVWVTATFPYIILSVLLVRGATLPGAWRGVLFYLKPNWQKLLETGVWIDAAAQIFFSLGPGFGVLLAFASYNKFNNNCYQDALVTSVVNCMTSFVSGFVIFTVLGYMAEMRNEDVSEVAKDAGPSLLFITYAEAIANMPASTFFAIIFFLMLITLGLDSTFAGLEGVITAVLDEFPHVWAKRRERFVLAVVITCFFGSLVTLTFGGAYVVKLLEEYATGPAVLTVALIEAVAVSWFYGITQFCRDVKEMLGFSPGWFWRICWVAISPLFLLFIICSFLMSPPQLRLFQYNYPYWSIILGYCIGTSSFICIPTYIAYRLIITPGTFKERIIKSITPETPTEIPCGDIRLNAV

[2] = biological target: T2, NET (Homo sapiens, UniProt P23975); settings: cited from earlier work
[3] = biological target: T1, SERT; assay: hSERT radioligand binding assay (3H-citalopram); design: expressed in transfected cells; host or cells: HEK-293; settings: hSERT membranes (HEK-293), 1.0 nM 3H-citalopram; for Ki: read-out: SERT pKi (converted)
Outline: (§1)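 Membranes came from HEK-293 cells stably expressing hSERT (0.5 μg protein) or hNET (1 μg), with 3H-citalopram or 3H-nisoxetine respectively. Incubation was 60 min at 22° C in Tris buffer with 120 mM NaCl and 5 mM KCl, pH 7.4, followed by filtration and scintillation counting. pKi was derived by Cheng-Prusoff from IC50 and saturation-derived Kd.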
Target sequence in this assay (P31645 whole entry): as the sequence (P31645 whole entry, species assumed) above

[4] = biological target: T2, NET; assay: hNET radioligand binding assay (3H-nisoxetine); design: expressed in transfected cells; host or cells: HEK-293; settings: hNET membranes (HEK-293), 1.0 nM 3H-nisoxetine; for Ki: read-out: NET pKi (converted)
Outline: as §1

T2 sequence (P23975 whole entry): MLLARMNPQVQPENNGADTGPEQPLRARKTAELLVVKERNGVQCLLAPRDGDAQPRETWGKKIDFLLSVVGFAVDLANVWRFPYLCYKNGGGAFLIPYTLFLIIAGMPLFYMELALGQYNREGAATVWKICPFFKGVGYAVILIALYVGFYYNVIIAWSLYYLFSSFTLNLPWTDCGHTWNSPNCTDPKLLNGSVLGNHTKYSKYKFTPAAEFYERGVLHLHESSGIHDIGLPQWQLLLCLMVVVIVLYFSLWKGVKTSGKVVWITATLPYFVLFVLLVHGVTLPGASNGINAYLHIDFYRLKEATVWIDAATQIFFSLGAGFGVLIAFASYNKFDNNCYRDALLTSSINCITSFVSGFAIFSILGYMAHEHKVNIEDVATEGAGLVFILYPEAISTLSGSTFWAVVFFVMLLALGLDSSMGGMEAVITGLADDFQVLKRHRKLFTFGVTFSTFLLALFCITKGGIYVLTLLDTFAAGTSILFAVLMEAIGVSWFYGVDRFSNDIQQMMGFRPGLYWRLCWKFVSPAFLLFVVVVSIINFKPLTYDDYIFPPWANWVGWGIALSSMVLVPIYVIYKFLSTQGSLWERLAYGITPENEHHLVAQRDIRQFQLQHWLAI

Ki [3] | Ki [4] | Structure (SMILES) | SERT pKi [3] | NET pKi [4] | further results
 |  | Cc1ccc(C23CNCC2C3)cc1 (stereo not drawn) [bicifadine] |  |  | pKi at SERT [1]: 7.0; pKi at NET [2]: 6.7
 |  | Cc1cnc(O[C@@H](c2ccccc2)[C@H]2CCNC2)c(Br)c1.O=C(O)C(F)(F)F [14-31] | ≧7.0 | ≧7.0 | 
≤ 0.1 µM | ≤ 0.1 µM | Cc1ccc(Cl)c(O[C@H](c2ccncc2)[C@H]2CCNC2)c1Cl [Example 3-7, 4-[(S)-(2,6-Dichloro-3-methylphenoxy)-(S)-pyrrolidin-3-yl-methyl]pyridine] |  |  | 
≤ 0.1 µM | ≤ 10 µM | Cc1cc(Cl)ccc1O[C@H](c1cnccn1)[C@H]1CCNC1 [10-6] |  |  | 
 |  | CCN(CC)C(=O)C1(c2ccccc2)CC1CN (stereo not drawn) [milnacipran] |  |  | selectivity (measured as pKi) for SERT over NET [1]: 2.5 fold
≤ 10 µM | ≤ 10 µM | COc1ccccc1O[C@H](c1cncc(Cl)c1)[C@H]1CCNC1 [Example 2-13, 3-Chloro-5-[(S)-(2-methoxyphenoxy)-(S)-pyrrolidin-3-yl-methyl]pyridine] |  |  | 
 |  | FC(F)(F)c1cccnc1O[C@H](c1ccccc1)[C@@H]1CCNC1.O=C(O)C(F)(F)F [14-33] | ≧5.0 | ≧5.0 | 
 |  | Fc1c(Cl)ccc(O[C@@H](c2ncco2)[C@H]2CCNC2)c1Cl.O=C(O)C(F)(F)F [6-4] | ≧7.0 | ≧7.0 | 
 |  | Cc1ccc(O[C@@H](c2ccccc2)[C@H]2CCNC2)nc1.O=C(O)C(F)(F)F [14-30] | ≧5.0 | ≧7.0 | 
 |  | Cc1cccc(Cl)c1O[C@@H](c1ncco1)[C@H]1CCNC1 [6-26] | ≧7.0 | ≧7.0 | 
 |  | Cc1ccnc(OC(c2ccccc2)C2CCNC2)c1 (stereo not drawn) [14-32] | ≧7.0 | ≧7.0 | 
≤ 10 µM | ≤ 10 µM | Fc1cc(F)c(O[C@@H](c2ncco2)[C@H]2CCNC2)c(F)c1 [6-2] |  |  | 
≤ 0.1 µM | ≤ 0.1 µM | Fc1cccc(C(Oc2cccc3ccccc23)C2CCNC2)c1 (stereo not drawn) [21-4] |  |  | 
 |  | FC(F)(F)c1ccc(O[C@@H](c2ccccc2)[C@H]2CCNC2)nc1.O=C(O)C(F)(F)F [14-23] | ≧7.0 | ≧5.0 | 
 |  | COc1cc(F)c(O[C@H](c2nccs2)C2CCNC2)c(F)c1 (stereo partly drawn) [Example 5-29] | ≧7.0 | ≧5.0 | 
 |  | Cc1cc(Cl)c(O[C@@H](c2ncco2)[C@H]2CCNC2)c(Cl)c1.O=C(O)C(F)(F)F [6-12] | ≧7.0 | ≧5.0 | 
 |  | FC(F)(F)COc1ncccc1O[C@@H](c1ccccc1)[C@H]1CCNC1.O=C(O)C(F)(F)F [15-11] | ≧7.0 | ≧7.0 | 
≤ 10 µM | ≤ 10 µM | Fc1cc(F)c(O[C@@H](c2cccnc2)[C@H]2CCNC2)c(F)c1 [Example 2-68, 3-[(R)-(S)-Pyrrolidin-3-yl-(2,4,6-trifluorophenoxy)methyl]pyridine] |  |  | 
≤ 0.1 µM | ≤ 0.1 µM | c1ccc(C(Oc2cccc3ccccc23)C2CCNC2)cc1 (stereo not drawn) [21-1] |  |  | 
 |  | Cc1cc(Cl)c(O[C@H](c2cncc(Cl)c2)[C@@H]2CCNC2)c(Cl)c1 [Example 2-28, 3-Chloro-5-[(R)-(2,6-dichloro-4-methylphenoxy)-(S)-pyrrolidin-3-yl-methy1]-pyridine] | ≧7.0 | ≧7.0 | 
